From patent US20120142766A1, “SUBSTITUTED 1,3-DIOXANES AND THEIR USES” (EVOLVA SA, priority 2007, published 2012)

Molecular target: T1, Thromboxane synthase (Homo sapiens, UniProt P24557)
T1 construct: Human Platelet Thromboxane Synthase Assay; from tissue; host or cells: human platelets
T1 sequence (P24557 1-533): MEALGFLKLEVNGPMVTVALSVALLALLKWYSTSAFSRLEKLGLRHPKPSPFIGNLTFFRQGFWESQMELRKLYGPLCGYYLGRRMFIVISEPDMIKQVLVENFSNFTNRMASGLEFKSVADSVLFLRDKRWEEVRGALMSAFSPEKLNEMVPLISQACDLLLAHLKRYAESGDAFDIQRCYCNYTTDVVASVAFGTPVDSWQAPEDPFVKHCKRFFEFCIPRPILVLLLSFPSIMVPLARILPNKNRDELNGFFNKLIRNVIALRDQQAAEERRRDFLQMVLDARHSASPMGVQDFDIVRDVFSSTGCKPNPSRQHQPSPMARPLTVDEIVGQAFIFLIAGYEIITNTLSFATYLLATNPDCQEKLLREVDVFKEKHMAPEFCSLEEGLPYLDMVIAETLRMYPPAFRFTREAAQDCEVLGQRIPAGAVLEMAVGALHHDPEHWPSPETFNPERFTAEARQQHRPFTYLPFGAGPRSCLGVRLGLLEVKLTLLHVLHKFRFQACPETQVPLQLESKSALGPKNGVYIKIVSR
Assay: Human platelet thromboxane synthase assay
Assay type: biochemical
Details: 10 μM
Description: The compounds were tested for thromboxane synthase inhibition essentially as described by Borsch-Haubold A G, Pasquet S, Watson S P. (1998) Direct inhibition of cyclooxygenase-1 and -2 by the kinase inhibitors SB 203580 and PD 98059. […] 1. Imidazole derivatives. J Med. Chem. (10):1139-48 according to the following:
Pre-incubation time, temp: 15 minutes at 25° C. Incubation time, temp: 3 minutes at 25° C.
Incubation Buffer: 10 mM Tris-HCl, pH 7.4
Quantification Method: EIA quantification of TxB2

O=C(O)CC/C=C\C[C@@H]1CO[C@H](c2ccccc2Cl)O[C@@H]1c1ccccc1O [Compound C, (Z)-6-((2S,4S,5R)-2-(2-chlorophenyl)-4-(2-hydroxyphenyl)-1,3-dioxan-5-yl)hex-4-enoic acid]
Thromboxane synthase Human platelet Inhibition (%): 61%
inhibition at 10 µM: 43%
